Test results from patent publication US20090137601A1, “L-Phenylalanine Derivatives” (ASTRAZENECA AB, priority 2005, published 2009).

molecular target: T1, α5β1 integrin (Homo sapiens, UniProt P05556+P08648); assay: In vitro cell adhesion assay: α5β1 integrin mediated adhesion of K562 cells to fibronectin fragment Fn9-10; assay type: cell-based; conditions: human K562 erythroleukaemia cells; Fn9-10 coated plates; 0.2 mM MnCl; 45 minutes at 37° C.; crystal violet absorbance at 590 nm
T1 construct: α5β1 integrin mediated adhesion of K562 cells; host or cells: K562 human erythroleukaemia cells (integrin, endogenous); E. coli (Fn9-10 ligand, made in house)
Excerpt: The assay determined the ability of compounds to inhibit the α5β1 integrin mediated adhesion of K562 cells to the ligand, a fragment of human fibronectin. The human K562 erythroleukaemia cell line (LGC Promochem, Teddington, Middlesex, UK, Catalogue No. CCL-243) was routinely maintained in RPMI 1640 medium (Sigma-Aldrich Company Ltd, Gillingham, Dorset SP8 4XT, Catalogue No. R0883) containing 10% heat-inactivated foetal calf serum (PAA lab GmbH, Pasching, Austria Catalogue No. PAA-A15-043) and 1% glutamax-1 (Invitrogen Ltd. Paisley, UK Catalogue No. 35050-038) at 37° C. with 5% CO2 at densities between 1×10^5 and 1×10^6 cells/ml.
A DNA fragment encoding the domains 9-10 (amino-acids 1325-1509) of human fibronectin (Swiss-Prot Accession No. P02751) was isolated from cDNA libraries using standard molecular biology and PCR cloning techniques. The cDNA fragment was sub-cloned into a pT7#3.3 expression vector containing a GST-epitope tag (developed at AstraZeneca; Bagnall et al., Protein Expression and Purification, 2003, 27: 1-11), and the fragment termed Fn9-10. Following expression in E. coli, the expressed protein was purified using the GST-tag using standard purification techniques.
For adhesion assay, a 96-well flat bottomed plate (Greiner Bio one ltd., Gloucester GL10 3SX Catalogue No. 655101) was coated overnight at 4° C. with 100 μl of 20 μg/ml Fn9-10 ligand in Dulbecco's PBS (Gibco #14190-94). The plate was then washed twice with 200 μl of PBS and blocked with 100 μl of 3% BSA (SigmaA7888) in PBS for 1 hour at 37° C. The plates were then washed again 3 times with 200 μl of PBS and left empty. […]
After fixation, the ethanol was flicked off to waste and 100 μl of 0.1% Crystal violet stain was added to each well, and incubated at ambient temperature for 15 minutes. […] Finally, 100 μl of deionised water was added to each well and the absorbance was determined at 590 nm on a spectrophotometer. The minimum value was subtracted from all values, and the absorbance signal was plotted against compound concentration to generate IC50 data.

T1 sequence (P08648 42-894 limits assumed): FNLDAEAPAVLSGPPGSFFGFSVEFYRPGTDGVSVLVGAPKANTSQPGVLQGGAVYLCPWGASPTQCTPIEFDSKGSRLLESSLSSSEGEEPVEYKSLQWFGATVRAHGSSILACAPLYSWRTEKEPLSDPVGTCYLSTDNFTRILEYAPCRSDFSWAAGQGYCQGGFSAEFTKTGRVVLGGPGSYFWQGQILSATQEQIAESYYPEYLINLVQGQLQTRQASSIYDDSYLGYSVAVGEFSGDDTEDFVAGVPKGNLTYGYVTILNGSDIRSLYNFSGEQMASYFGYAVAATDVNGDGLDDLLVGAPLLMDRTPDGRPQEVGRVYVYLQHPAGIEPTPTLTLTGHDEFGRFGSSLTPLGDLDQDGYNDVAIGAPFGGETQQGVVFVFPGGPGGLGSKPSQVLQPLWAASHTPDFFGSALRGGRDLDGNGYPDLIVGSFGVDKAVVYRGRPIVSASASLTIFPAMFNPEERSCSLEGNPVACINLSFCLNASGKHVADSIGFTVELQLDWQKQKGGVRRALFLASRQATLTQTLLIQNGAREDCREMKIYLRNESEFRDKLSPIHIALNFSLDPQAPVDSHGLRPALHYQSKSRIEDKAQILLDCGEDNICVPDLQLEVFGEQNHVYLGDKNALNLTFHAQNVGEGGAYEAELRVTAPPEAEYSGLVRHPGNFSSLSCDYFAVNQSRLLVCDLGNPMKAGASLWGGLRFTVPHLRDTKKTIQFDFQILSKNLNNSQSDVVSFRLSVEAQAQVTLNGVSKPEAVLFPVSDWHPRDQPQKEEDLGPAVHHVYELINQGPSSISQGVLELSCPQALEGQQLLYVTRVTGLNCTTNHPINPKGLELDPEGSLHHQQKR
T1 sequence (P08648 895-1049 partner limits assumed): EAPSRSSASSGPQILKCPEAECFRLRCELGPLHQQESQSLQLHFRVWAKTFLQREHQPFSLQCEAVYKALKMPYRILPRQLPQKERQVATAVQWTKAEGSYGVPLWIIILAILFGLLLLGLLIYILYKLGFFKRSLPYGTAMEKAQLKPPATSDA
T1 sequence (P05556 21-798): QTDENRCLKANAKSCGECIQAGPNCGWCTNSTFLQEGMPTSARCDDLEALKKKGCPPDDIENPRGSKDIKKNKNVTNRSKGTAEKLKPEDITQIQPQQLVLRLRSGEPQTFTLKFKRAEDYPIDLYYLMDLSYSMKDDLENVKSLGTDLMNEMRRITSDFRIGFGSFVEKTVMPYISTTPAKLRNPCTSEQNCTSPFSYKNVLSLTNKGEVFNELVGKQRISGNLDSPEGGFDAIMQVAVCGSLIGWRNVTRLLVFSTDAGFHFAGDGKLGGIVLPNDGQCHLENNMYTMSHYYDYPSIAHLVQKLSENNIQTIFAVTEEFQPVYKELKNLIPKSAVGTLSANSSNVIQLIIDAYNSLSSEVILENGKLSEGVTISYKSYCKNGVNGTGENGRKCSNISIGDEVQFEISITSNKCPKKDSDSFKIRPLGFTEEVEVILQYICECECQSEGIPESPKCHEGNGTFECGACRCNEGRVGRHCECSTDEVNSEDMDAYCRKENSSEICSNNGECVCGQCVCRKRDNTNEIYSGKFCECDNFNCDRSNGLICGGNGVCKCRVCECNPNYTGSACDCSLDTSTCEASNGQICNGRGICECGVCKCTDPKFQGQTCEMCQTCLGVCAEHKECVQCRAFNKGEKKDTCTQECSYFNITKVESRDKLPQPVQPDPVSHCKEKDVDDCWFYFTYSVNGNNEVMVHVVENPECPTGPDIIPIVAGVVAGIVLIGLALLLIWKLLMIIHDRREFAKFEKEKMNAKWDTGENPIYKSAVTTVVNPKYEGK

IC50 [µM] | SMILES
≥ 30 | O=C(N[C@@H](Cc1ccc(C2CCN(Cc3ccccc3F)CC2)cc1)C(=O)O)c1c(Cl)cccc1Cl [N-(2,6-dichlorobenzoyl)-4-[1-(2-fluorobenzyl)piperidin-4-yl]-L-phenylalanine]
≥ 30 | COc1cccc(CN2CCC(c3ccc(C[C@H](NC(=O)c4c(Cl)cccc4Cl)C(=O)O)cc3)CC2)c1 [N-(2,6-dichlorobenzoyl)-4-[1-(3-methoxybenzyl)piperidin-4-yl]-L-phenylalanine]
≥ 30 | Cc1cccc(Cl)c1C(=O)N[C@@H](Cc1ccc(C2=CCN(Cc3ccc(F)cc3)CC2)cc1)C(=O)O [N-(2-chloro-6-methylbenzoyl)-4-[1-(4-fluorobenzyl)-1,2,3,6-tetrahydropyridin-4-yl]-L-phenylalanine]
